Laboratory results as given in patent publication US20160046579A1, “THERAPEUTIC COMPOUNDS AND COMPOSITIONS” (AGIOS PHARMACEUTICALS, INC., priority 2013, published 2016).

Legend:
wt PKR [1] = target: T1, wt PKR (Homo sapiens, UniProt P30613); test: PKR Mutant Assay, dose response (AC50), wild type PKR enzyme; format: biochemical
Method: (§1) • PKR or PKR mutant enzyme solution was diluted in assay buffer. • 2 μL of test compound was added into wells first, and then 180 μL reaction mix was added. • Reactions mixture with test compound was assembled except for ADP, and plates were stored for 60 minutes at room temperature. • 20 uL ADP was added to start reaction at room temperature and reaction progress was measured as changes in absorbance at 340 nm wavelength at room temperature.
(§2) Test Compound Preparation: • Test compound stock was made at 100× concentration in 100% DMSO (10 mM) • 1 to 3 dilutions were made for 11 points (i.e. 50 μl of first concentration added to 100 μl 100% DMSO to yield 3.33 mM, 50 μl of this added to 100 μl DMSO to yield 1.11 mM, and so forth) • 1 to 100 dilution into assay (2 μl in 200 μl) yielded starting concentration of 100 μM, decreasing 3 fold for 11 points.

PKR R510Q = PKR R510Q (Homo sapiens, UniProt P30613, R510Q); test: PKR Mutant Assay, dose response (AC50), PKR R510Q; format: biochemical; conditions: PKR R510Q mutant enzyme
Sequence of PKR R510Q (P30613 whole entry R510Q): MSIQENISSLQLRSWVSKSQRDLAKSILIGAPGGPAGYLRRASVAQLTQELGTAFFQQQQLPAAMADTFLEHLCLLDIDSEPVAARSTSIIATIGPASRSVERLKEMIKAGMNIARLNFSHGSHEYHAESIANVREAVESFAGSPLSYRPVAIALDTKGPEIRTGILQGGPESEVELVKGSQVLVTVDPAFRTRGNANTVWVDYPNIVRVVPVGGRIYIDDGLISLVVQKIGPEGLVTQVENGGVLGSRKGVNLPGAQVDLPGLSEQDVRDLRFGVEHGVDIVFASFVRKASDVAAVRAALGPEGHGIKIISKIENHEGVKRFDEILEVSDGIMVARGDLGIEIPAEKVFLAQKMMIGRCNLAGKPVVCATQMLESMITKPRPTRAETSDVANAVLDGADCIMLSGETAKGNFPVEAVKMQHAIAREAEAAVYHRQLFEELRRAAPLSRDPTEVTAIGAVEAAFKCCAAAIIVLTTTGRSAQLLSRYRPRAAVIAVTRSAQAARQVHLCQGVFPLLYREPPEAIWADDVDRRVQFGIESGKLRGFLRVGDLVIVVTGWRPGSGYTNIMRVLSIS
Method: as §1, §2

PKR R532W = PKR R532W (Homo sapiens, UniProt P30613, R532W); test: PKR Mutant Assay, dose response (AC50), PKR R532W; format: biochemical; conditions: PKR R532W mutant enzyme
Sequence of PKR R532W (P30613 whole entry R532W): as the sequence (P30613 whole entry R510Q) above, with Q510R, R532W counted along it
Method: as §1, §2

wt PKR [2] = target: T1, wt PKR; test: wt PKR cell based assay

T1 sequence (P30613 whole entry): as the sequence (P30613 whole entry R510Q) above, with Q510R counted along it

Row | SMILES | AC50 (wt PKR [1]; wild type PKR enzyme) [nM] | AC50 (PKR R510Q) [nM] | AC50 (PKR R532W) [nM] | AC50 (wt PKR [2]) [nM] | AC50 (wt PKR [1]; wild type PKR, enzymatic assay) [nM] | AC50 (wt PKR [2]; wild type PKR) [nM]
1 | Cc1ccccc1CC1(O)CCN(C(=O)c2ccc(NS(=O)(=O)c3cccc4scnc34)cc2)CC1 [Compound 125] | < 100 | < 100 | < 100 | < 100 |  | 
2 | CC(C)CC1(O)CCN(C(=O)c2ccc(NS(=O)(=O)c3cccc4cncnc34)cc2)CC1 [Compound 441] | 101 to 1000 |  |  |  |  | 
3 | CC(C)CC1(O)CCN(C(=O)c2ccc(NS(=O)(=O)c3cccc4[nH]cnc34)cc2)CC1 [Compound 449] | > 10000 | > 10000 | > 10000 |  |  | 
4 | CS(=O)(=O)CCC1(O)CCN(C(=O)c2ccc(NS(=O)(=O)c3cccc4scnc34)cc2)CC1 [Compound 466] | 1010 to 10000 | > 10000 | > 10000 |  |  | 
5 | CC(F)(F)CCC1(O)CCN(C(=O)c2ccc(NS(=O)(=O)c3cccc4scnc34)cc2OC(F)F)CC1 [Compound 473, N-(4-(4-(3,3-difluorobutyl)-4-hydroxypiperidine-1-carbonyl)-3-(difluoromethoxy)phenyl)benzo[d]thiazole-4-sulfonamide] | < 100 | 101 to 1000 | < 100 | 101 to 1000 |  | 
6 | CC(C)(O)CCCC1(O)CCN(C(=O)c2ccc(NS(=O)(=O)c3cccc4nccnc34)cc2)CC1 [Compound 475] | > 10000 |  | > 10000 |  |  | 
7 | CC(F)(F)CCC1(O)CCN(C(=O)c2ccc(NS(=O)(=O)c3cccc4scnc34)cc2C#N)CC1 [Compound 477, N-(3-cyano-4-(4-(3,3-difluorobutyl)-4-hydroxypiperidine-1-carbonyl)phenyl)benzo[d]thiazole-4-sulfonamide] | 101 to 1000 | 1010 to 10000 | 101 to 1000 |  |  | 
8 | O=C(c1ccc(NS(=O)(=O)c2cccc3scnc23)cc1)N1CCC(O)(c2scnc2Cl)CC1 [Compound 480, N-(4-(4-(4-chlorothiazol-5-yl)-4-hydroxypiperidine-1-carbonyl)phenyl)benzo[d]thiazole-4-sulfonamide] | < 100 | 101 to 1000 | < 100 | 101 to 1000 |  | 
9 | Nc1nc(CC2(O)CCN(C(=O)c3ccc(NS(=O)(=O)c4cccc5scnc45)cc3)CC2)cs1 [Compound 485] | 1010 to 10000 | > 10000 | 1010 to 10000 |  |  | 
10 | CN1CCC(C2(CO)CCN(C(=O)c3ccc(NS(=O)(=O)c4cccc5scnc45)cc3)CC2)C1=O (stereo not drawn) [Compound 487] | 1010 to 10000 | 1010 to 10000 | 1010 to 10000 |  |  | 
11 | CN1CCC(CC2(O)CCN(C(=O)c3ccc(NS(=O)(=O)c4cccc5scnc45)cc3)CC2)C1=O (stereo not drawn) [Compound 488] | 1010 to 10000 | > 10000 | 101 to 1000 |  |  | 
12 | CCS(=O)(=O)CC1(O)CCN(C(=O)c2ccc(NS(=O)(=O)c3cccc4nccnc34)cc2)CC1 [Compound 490] | 1010 to 10000 | > 10000 | 1010 to 10000 |  |  | 
13 | O=C1NCCC1CC1(O)CCN(C(=O)c2ccc(NS(=O)(=O)c3cccc4scnc34)cc2)CC1 (stereo not drawn) [Compound 495] | 1010 to 10000 | > 10000 | 1010 to 10000 |  |  | 
14 | O=C1NCCC1CC1(O)CCN(C(=O)c2ccc(NS(=O)(=O)c3cccc4nccnc34)cc2)CC1 (stereo not drawn) [Compound 496] | 1010 to 10000 | > 10000 | 1010 to 10000 |  |  | 
15 | O=C(c1ccc(NS(=O)(=O)c2cccc3scnc23)cc1)N1CCC(O)(c2ncc(Cl)s2)CC1 [Compound 509] | 1010 to 10000 | > 10000 | 101 to 1000 |  |  | 
16 | O=C(c1ccc(NS(=O)(=O)c2cccc3nccnc23)cc1)N1CCC(O)(c2sncc2Cl)CC1 [Compound 516, N-(4-(4-(4-chloroisothiazol-5-yl)-4-hydroxypiperidine-1-carbonyl)phenyl)quinoxaline-5-sulfonamide] |  | 101 to 1000 |  | < 100 |  | 
17 | O=C(c1ccc(NS(=O)(=O)c2cccc3nccnc23)cc1)N1CCC(O)(c2ccns2)CC1 [Compound 517] |  | 101 to 1000 |  | 101 to 1000 |  | 
18 | CC(C)CC1(OP(=O)(O)O)CCN(C(=O)c2ccc(NS(=O)(=O)c3cccc4nccnc34)cc2)CC1 [Compound 525] |  | > 10000 |  | 101 to 1000 |  | 
19 | Cc1cc(C2(O)CCN(C(=O)c3ccc(NS(=O)(=O)c4cccc5scnc45)cc3)CC2)sn1 [Compound 528, N-(4-(4-hydroxy-4-(3-methylisothiazol-5-yl)piperidine-1-carbonyl)phenyl)benzo[d]thiazole-4-sulfonamide] |  |  |  |  | < 100 | 101 to 1000

Next, values leading:

Row | AC50 (wt PKR [1]; wild type PKR enzyme) [nM] | AC50 (PKR R510Q) [nM] | AC50 (PKR R532W) [nM] | AC50 (wt PKR [2]) [nM] | AC50 (wt PKR [1]; wild type PKR, enzymatic assay) [nM] | AC50 (wt PKR [2]; wild type PKR) [nM] | SMILES
20 |  | > 10000 |  |  |  |  | CC(C)CC1(O)CCN(C(=O)c2ccc(NS(=O)(=O)c3cnc(O)c4cccnc34)cc2)CC1 [Compound 416]
21 | > 10000 | > 10000 | > 10000 |  |  |  | Cn1ccc(C2(O)CCN(C(=O)c3ccc(NS(=O)(=O)c4cccc5scnc45)cc3)CC2)n1 [Compound 450]
22 | > 10000 | > 10000 | > 10000 |  |  |  | CC(C)CC1(O)CCN(C(=O)c2ccc(NS(=O)(=O)c3cccc4ncc(O)nc34)cc2)CC1 [Compound 460]
23 | 101 to 1000 | 101 to 1000 | 101 to 1000 | 1010 to 10000 |  |  | CC(F)(F)CCC1(O)CCN(C(=O)c2ccc(NS(=O)(=O)c3cccc4scnc34)cc2F)CC1 [Compound 469, N-(4-(4-(3,3-difluorobutyl)-4-hydroxypiperidine-1-carbonyl)-3-fluorophenyl)benzo[d]thiazole-4-sulfonamide]
24 | 1010 to 10000 | > 10000 | 1010 to 10000 |  |  |  | CS(=O)(=O)CCC1(O)CCN(C(=O)c2ccc(NS(=O)(=O)c3cccc4nccnc34)cc2)CC1 [Compound 470]
25 | 101 to 1000 | 1010 to 10000 | 101 to 1000 |  |  |  | CS(=O)(=O)CC1(O)CCN(C(=O)c2ccc(NS(=O)(=O)c3cccc4scnc34)cc2)CC1 [Compound 472]
26 | 101 to 1000 | 1010 to 10000 | 101 to 1000 |  |  |  | CS(=O)(=O)CC1(O)CCN(C(=O)c2ccc(NS(=O)(=O)c3cccc4nccnc34)cc2)CC1 [Compound 474]
27 | 1010 to 10000 |  | 1010 to 10000 |  |  |  | CC(C)(O)CCCC1(O)CCN(C(=O)c2ccc(NS(=O)(=O)c3cccc4scnc34)cc2)CC1 [Compound 476]
28 | 101 to 1000 | 101 to 1000 | 101 to 1000 | 101 to 1000 |  |  | CC(F)(F)CCC1(O)CCN(C(=O)c2ccc(NS(=O)(=O)c3cccc4nccnc34)cc2F)CC1 [Compound 478, N-(4-(4-(3,3-difluorobutyl)-4-hydroxypiperidine-1-carbonyl)-3-fluorophenyl)quinoxaline-5-sulfonamide]
29 | < 100 | 101 to 1000 | < 100 | 101 to 1000 |  |  | Cc1cc(C2(O)CCN(C(=O)c3ccc(NS(=O)(=O)c4cccc5scnc45)cc3)CC2)sn1 [Compound 479]
30 | 1010 to 10000 | 1010 to 10000 | 101 to 1000 |  |  |  | O=C(c1ccc(NS(=O)(=O)c2cccc3scnc23)cc1)N1CCC(O)(c2nc(Cl)cs2)CC1 [Compound 481]
31 | 1010 to 10000 | > 10000 | 1010 to 10000 |  |  |  | CCS(=O)(=O)CC1(O)CCN(C(=O)c2ccc(NS(=O)(=O)c3cccc4scnc34)cc2)CC1 [Compound 484]
32 | < 100 |  |  | 101 to 1000 |  |  | O=C(c1ccc(NS(=O)(=O)c2cccc3scnc23)cc1)N1CCC(O)(Cc2nc(Cl)cs2)CC1 [Compound 489, N-(4-(4-((4-chlorothiazol-2-yl)methyl)-4-hydroxypiperidine-1-carbonyl)phenyl)benzo[d]thiazole-4-sulfonamide]
33 |  | 101 to 1000 |  |  |  |  | O=C(c1ccc(NS(=O)(=O)c2cccc3nccnc23)cc1)N1CCC(O)(Cc2nc(Cl)cs2)CC1 [Compound 494]
34 | 101 to 1000 | > 10000 | 101 to 1000 |  |  |  | CCn1cc(CC2(O)CCN(C(=O)c3ccc(NS(=O)(=O)c4cccc5nccnc45)cc3)CC2)cn1 [Compound 503]
35 | 101 to 1000 | 1010 to 10000 | 1010 to 10000 |  |  |  | CC1(O)CCC(C2(O)CCN(C(=O)c3ccc(NS(=O)(=O)c4cccc5scnc45)cc3)CC2)CC1 (stereo not drawn) [Compound 504]
36 | 101 to 1000 | 101 to 1000 | 101 to 1000 |  |  |  | CC1(O)CCC(C2(O)CCN(C(=O)c3ccc(NS(=O)(=O)c4cccc5nccnc45)cc3)CC2)CC1 (stereo not drawn) [Compound 505]
37 | 1010 to 10000 | > 10000 | 1010 to 10000 |  |  |  | CCn1cc(CC2(O)CCN(C(=O)c3ccc(NS(=O)(=O)c4cccc5scnc45)cc3)CC2)cn1 [Compound 506]
38 | 101 to 1000 | > 10000 | 101 to 1000 |  |  |  | Cn1ccc(CC2(O)CCN(C(=O)c3ccc(NS(=O)(=O)c4cccc5nccnc45)cc3)CC2)n1 [Compound 507]
39 |  | 101 to 1000 |  | 101 to 1000 |  |  | O=C(c1ccc(NS(=O)(=O)c2cccc3scnc23)cc1)N1CCC(O)(c2ccns2)CC1 [Compound 515, N-(4-(4-hydroxy-4-(isothiazol-5-yl)piperidine-1-carbonyl)phenyl)benzo[d]thiazole-4-sulfonamide]
40 | > 10000 |  | > 10000 | 1010 to 10000 |  |  | CC(C)CC1(OP(=O)(O)O)CCN(C(=O)c2ccc(NS(=O)(=O)c3cccc4scnc34)cc2)CC1 [Compound 524]
41 |  | 101 to 1000 | 101 to 1000 |  |  |  | CC(C)CC1(N)CCN(C(=O)c2ccc(NS(=O)(=O)c3cccc4scnc34)cc2)CC1 [Compound 529]
